This passage reports IC50 results from US20180250280A1 (BAYER PHARMA AKTIENGESELLSCHAFT, priority 2015, published 2018).

One experiment addresses T1, human plasma kallikrein (Homo sapiens, UniProt P03952).
T1 construct: purchased Kordia
The experiment can be described thus: Determination of the plasma kallikrein activity (fluorogenic peptide substrate, AMC cleavage). It is filed as biochemical. The note with it: plasma kallikrein from Kordia 0.6 nM; substrate H-Pro-Phe-Arg-AMC 10 μM; 30 min at 22° C.; in some cases averages from multiple determinations. As to the method:
To determine the plasma kallikrein inhibition of the substances according to the invention, a biochemical test system is used which utilizes the reaction of a peptidic plasma kallikrein substrate to determine the enzymatic activity of human plasma kallikrein. Here, plasma kallikrein cleaves from the peptic plasma kallikrein substrate the C-terminal aminomethylcoumarin (AMC), the fluorescence of which is measured. The determinations are conducted in microtitre plates.
Test substances are dissolved in dimethyl sulfoxide and serially diluted in dimethyl sulfoxide (3000 μM to 0.0078 μM; resulting final concentrations in the test: 50 μM to 0.00013 μM). 1 μl of the diluted substance solutions is placed into each of the wells of white microtitre plates from Greiner (384 wells). 20 μl of assay buffer (50 mM Tris/HCl pH 7.4; 100 mM sodium chloride solution; 5 mM calcium chloride solution; 0.1% of bovine serum albumin) and 20 μl of plasma kallikrein from Kordia (0.6 nM in assay buffer) are then added successively. After 15 min of incubation, the enzyme reaction is started by addition of 20 μl of the substrate H-Pro-Phe-Arg-AMC dissolved in assay buffer (10 μM in assay buffer) from Bachem, the mixture is incubated at room temperature (22° C.) for 30 min and fluorescence is then measured (excitation: 360 nm, emission: 460 nm). The measured emissions of the test batches with test substance are compared to those of control batches without test substance (only dimethyl sulfoxide instead of test substance in dimethyl sulfoxide), and IC50 values are calculated from the concentration/activity relationships. Activity data from this test are given in Table B below (in some cases as averages from multiple individual determinations): […]

A further experiment deals with T2, human factor XIa (Homo sapiens, UniProt P03951).
T2 construct: purchased Kordia
Kind of experiment: Measurement of FXIa inhibition (fluorogenic peptide substrate, AMC cleavage). It is filed as biochemical. The following applies: factor XIa from Kordia 0.45 nM; substrate Boc-Glu(OBzl)-Ala-Arg-AMC 10 μM; 30 min at 22° C.; in some cases averages from multiple determinations. How it is done:
The factor XIa inhibition of the substances according to the invention is determined using a biochemical test system which utilizes the reaction of a peptidic factor XIa substrate to determine the enzymatic activity of human factor XIa. Here, factor XIa cleaves from the peptic factor XIa substrate the C-terminal aminomethylcoumarin (AMC), the fluorescence of which is measured. The determinations are conducted in microtitre plates.
Test substances are dissolved in dimethyl sulfoxide and serially diluted in dimethyl sulfoxide (3000 μM to 0.0078 μM; resulting final concentrations in the test: 50 μM to 0.00013 μM). 1 μl of the diluted substance solutions is placed into each of the wells of white microtitre plates from Greiner (384 wells). 20 μl of assay buffer (50 mM of Tris/HCl pH 7.4; 100 mM of sodium chloride; 5 mM of calcium chloride; 0.1% of bovine serum albumin) and 20 μl of factor XIa from Kordia (0.45 nM in assay buffer) are then added successively. After 15 min of incubation, the enzyme reaction is started by addition of 20 μl of the factor XIa substrate Boc-Glu(OBzl)-Ala-Arg-AMC dissolved in assay buffer (10 μM in assay buffer) from Bachem, the mixture is incubated at room temperature (22° C.) for 30 min and fluorescence is then measured (excitation: 360 nm, emission: 460 nm). The measured emissions of the test batches with test substance are compared to those of control batches without test substance (only dimethyl sulfoxide instead of test substance in dimethyl sulfoxide), and IC50 values are calculated from the concentration/activity relationships. Activity data from this test are given in Table A below (in some cases as averages from multiple individual determinations): […]

The structures appear in SMILES notation. pIC50: −log10 of the molar value.

T2 sequence (P03951 388-625 limits assumed): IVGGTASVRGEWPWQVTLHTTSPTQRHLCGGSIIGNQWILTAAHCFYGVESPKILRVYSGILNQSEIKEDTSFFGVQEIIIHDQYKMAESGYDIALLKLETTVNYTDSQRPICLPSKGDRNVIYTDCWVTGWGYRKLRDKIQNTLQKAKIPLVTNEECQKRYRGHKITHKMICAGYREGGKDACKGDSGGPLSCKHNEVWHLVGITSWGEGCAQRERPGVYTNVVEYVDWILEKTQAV
T2 sequence (P03951 19-387 partner limits assumed): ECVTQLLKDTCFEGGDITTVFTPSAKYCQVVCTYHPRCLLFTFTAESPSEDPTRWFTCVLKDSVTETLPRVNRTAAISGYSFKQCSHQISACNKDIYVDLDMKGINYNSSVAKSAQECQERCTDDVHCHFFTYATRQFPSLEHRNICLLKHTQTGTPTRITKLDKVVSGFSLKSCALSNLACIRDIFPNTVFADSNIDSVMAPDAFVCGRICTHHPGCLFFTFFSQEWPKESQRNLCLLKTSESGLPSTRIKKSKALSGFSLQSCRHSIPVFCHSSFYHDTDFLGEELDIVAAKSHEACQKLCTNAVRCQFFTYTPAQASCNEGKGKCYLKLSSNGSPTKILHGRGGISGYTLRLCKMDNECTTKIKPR
T1 sequence (P03952 391-638 limits assumed): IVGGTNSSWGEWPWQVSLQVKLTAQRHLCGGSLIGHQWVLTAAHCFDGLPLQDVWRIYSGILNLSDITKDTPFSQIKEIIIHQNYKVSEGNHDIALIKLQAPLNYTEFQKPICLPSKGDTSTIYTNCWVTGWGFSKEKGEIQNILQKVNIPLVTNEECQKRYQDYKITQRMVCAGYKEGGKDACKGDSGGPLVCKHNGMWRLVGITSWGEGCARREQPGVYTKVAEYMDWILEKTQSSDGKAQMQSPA
T1 sequence (P03952 20-390 partner limits assumed): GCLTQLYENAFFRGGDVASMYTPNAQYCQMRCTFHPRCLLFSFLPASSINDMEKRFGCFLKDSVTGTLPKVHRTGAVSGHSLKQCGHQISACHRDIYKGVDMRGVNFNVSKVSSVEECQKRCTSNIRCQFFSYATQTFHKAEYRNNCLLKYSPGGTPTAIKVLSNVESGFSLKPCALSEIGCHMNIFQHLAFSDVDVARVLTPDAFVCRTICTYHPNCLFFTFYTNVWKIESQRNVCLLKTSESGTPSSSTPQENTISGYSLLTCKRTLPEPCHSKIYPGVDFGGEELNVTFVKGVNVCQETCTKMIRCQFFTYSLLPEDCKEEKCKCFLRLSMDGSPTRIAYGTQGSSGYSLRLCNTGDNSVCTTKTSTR

In general, pIC50 refers to the IC50 on a negative log10 scale, so that one unit is a factor of ten. `CCCC(C(=O)Nc1ccc(C(=O)NC)nc1)n1cc(OC)c(-c2cc(Cl)ccc2OCC(F)(F)F)cc1=O` (racemic) [Example 66, 5-{[2-{4-[5-Chloro-2-(2,2,2-trifluoroethoxy)phenyl]-5-methoxy-2-oxopyridin-1(2H)-yl}pentanoyl]amino}-N-methylpyridine-2-carboxamide]: the pIC50 is 6.74 on human plasma kallikrein and 7.44 at human factor XIa.
In the same order, the values of `COc1cn(C(CC2COCCO2)C(=O)Nc2ccc(C(N)=O)nc2)c(=O)cc1-c1cc(Cl)ccc1OCC(F)F` (centres unmarked) [Example 30, 5-{[2-{4-[5-Chloro-2-(2,2-difluoroethoxy)phenyl]-5-methoxy-2-oxopyridin-1(2H)-yl}-3-(1,4-dioxan-2-yl)propanoyl]amino}pyridine-2-carboxamide] are 7.13 and 8.33.
On to `COc1cn(C(C[C@@H]2CCCCO2)C(=O)Nc2ccc3nc(C(=O)O)cn3c2)c(=O)cc1-c1cc(Cl)ccc1OCC(F)(F)F` (some centres unmarked) [Example 77], for which the pIC50 against human plasma kallikrein was 7.64; at human factor XIa, 8.66.
The like results for `COc1cn(C(CC2=NOCCC2)C(=O)Nc2ccc3nn(C)cc3c2)c(=O)cc1-c1cc(Cl)ccc1OCC(F)(F)F` (racemic) [Example 24, 2-{4-[5-Chloro-2-(2,2,2-trifluoroethoxy)phenyl]-5-methoxy-2-oxopyridin-1(2H)-yl}-3-(5,6-dihydro-4H-1,2-oxazin-3-yl)-N-(2-methyl-2H-indazol-5-yl)propanamide] were, in that order, 6.89 and 7.44.
The like results for `COc1cn(C(CC2COCCO2)C(=O)Nc2ccc(C(=O)O)cc2)c(=O)cc1-c1cc(Cl)ccc1OCC(F)(F)F` (centres unmarked) [Example 17, 4-{[2-{4-[5-Chloro-2-(2,2,2-trifluoroethoxy)phenyl]-5-methoxy-2-oxopyridin-1(2H)-yl}-3-(1,4-dioxan-2-yl)propanoyl]amino}benzoic acid] were, in that order, 7.33 and 9.09.
In the same order, the values of `CNC(=O)c1ccc(NC(=O)C(CCOC)n2cc(OC)c(-c3cc(Cl)ccc3OCC(F)(F)F)cc2=O)cc1F` (racemic) [Example 6, 4-[(2-{4-[5-Chloro-2-(2,2,2-trifluoroethoxy)phenyl]-5-methoxy-2-oxopyridin-1(2H)-yl}-4-methoxybutanoyl)amino]-2-fluoro-N-methylbenzamide] are 6.89 and 7.72.
For the compound `COc1cn(C(CCOC(C)(C)C)C(=O)Nc2ccc(C(=O)O)cc2)c(=O)cc1-c1cc(Cl)ccc1OCC(F)(F)F` (racemic) [Example 7, 4-[(4-tert-Butoxy-2-{4-[5-chloro-2-(2,2,2-trifluoroethoxy)phenyl]-5-methoxy-2-oxopyridin-1(2H)-yl}butanoyl)amino]benzoic acid], the pIC50 was 7.47 at human plasma kallikrein and 9.15 at human factor XIa.
In the same order, the values of `COc1cn(C(CC2COCCO2)C(=O)Nc2ccc(C(=O)O)cc2)c(=O)cc1-c1cc(Cl)ccc1OCC(F)F` (centres unmarked) [Example 29, 4-{[2-{4-[5-Chloro-2-(2,2-difluoroethoxy)phenyl]-5-methoxy-2-oxopyridin-1(2H)-yl}-3-(1,4-dioxan-2-yl)propanoyl]amino}benzoic acid] are 7.10 and 8.80.
In the same order, the values of `COc1cn(C(CCOC(C)(C)C)C(=O)Nc2ccc(C(=O)O)cc2)c(=O)cc1-c1cc(Cl)ccc1OCC(F)F` (racemic) [Example 25, 4-[(4-tert-Butoxy-2-{4-[5-chloro-2-(2,2-difluoroethoxy)phenyl]-5-methoxy-2-oxopyridin-1(2H)-yl}butanoyl)amino]benzoic acid] are 6.92 and 8.62.
In the same order, the values of `CCCC(C(=O)Nc1ccc2nccnc2c1)n1cc(OC)c(-c2cc(Cl)ccc2OCC(F)(F)F)cc1=O` (racemic) [Example 64, N-(Quinoxalin-6-yl)-2-{4-[5-chloro-2-(2,2,2-trifluoroethoxy)phenyl]-5-methoxy-2-oxopyridin-1(2H)-yl}pentanamide] are 7.23 and 7.44.
As for `COc1cn(C(C[C@@H]2CCCCO2)C(=O)Nc2ccc(C(N)=O)c(F)c2)c(=O)cc1-c1cc(Cl)ccc1OCC(F)(F)F` (stereo partly drawn) [Example 53, 4-[(2-{4-[5-Chloro-2-(2,2,2-trifluoroethoxy)phenyl]-5-methoxy-2-oxopyridin-1(2H)-yl}-3-[(2S)-tetrahydro-2H-pyran-2-yl]propanoyl)amino]-2-fluorobenzamide], the pIC50 is 6.68 against human plasma kallikrein and 8.03 on human factor XIa.
The like results for `COc1cn(C(C[C@@H]2CCCCO2)C(=O)Nc2ccc(C(N)=O)nc2)c(=O)cc1-c1cc(Cl)ccc1OCC(F)(F)F` (some centres unmarked) [Example 54] were, in that order, 7.05 and 8.52.
In the same order, the values of `COc1cn(C(Cc2ccn(C)n2)C(=O)Nc2ccc3nn(C)cc3c2)c(=O)cc1-c1cc(Cl)ccc1OCC(F)(F)F` (racemic) [Example 14, 2-{4-[5-Chloro-2-(2,2,2-trifluoroethoxy)phenyl]-5-methoxy-2-oxopyridin-1(2H)-yl}-N-(2-methyl-2H-indazol-5-yl)-3-(1-methyl-1H-pyrazol-3-yl)propanamide] are 7.35 and 8.03.
In the same order, the values of `COc1cn(C(Cc2ccn(C)n2)C(=O)Nc2ccc(C(N)=O)c(F)c2)c(=O)cc1-c1cc(Cl)ccc1OCC(F)(F)F` (racemic) [Example 16, 4-{[2-{4-[5-Chloro-2-(2,2,2-trifluoroethoxy)phenyl]-5-methoxy-2-oxopyridin-1 (2H)-yl}-3-(1-methyl-1H-pyrazol-3-yl)propanoyl]amino}-2-fluorobenzamide] are 7.17 and 8.00.
`COc1cn(C(CCOC(F)(F)F)C(=O)Nc2ccc(C(N)=O)c(F)c2)c(=O)cc1-c1cc(Cl)ccc1OCC(F)(F)F` (racemic) [Example 42, 4-{[2-{4-[5-Chloro-2-(2,2,2-trifluoroethoxy)phenyl]-5-methoxy-2-oxopyridin-1(2H)-yl}-4-(trifluoromethoxy)butanoyl]amino}-2-fluorobenzamide]: the pIC50 against human plasma kallikrein is 6.72; against human factor XIa, 7.54.
In the same order, the values of `CCCC(C(=O)Nc1ccc(C(N)=O)nc1)n1cc(OC)c(-c2cc(Cl)ccc2OCC(F)(F)F)cc1=O` (racemic) [Example 68, 5-{[2-{4-[5-Chloro-2-(2,2,2-trifluoroethoxy)phenyl]-5-methoxy-2-oxopyridin-1(2H)-yl}pentanoyl]amino}pyridine-2-carboxamide] are 6.60 and 7.43.
For `COc1cn(C(CCOC2(C)CCC2)C(=O)Nc2ccc(C(N)=O)nc2)c(=O)cc1-c1cc(Cl)ccc1OCC(F)(F)F` (racemic) [Example 60, 5-[[2-[4-[5-Chloro-2-(2,2,2-trifluoroethoxy)phenyl]-5-methoxy-2-oxo-1-pyridyl]-4-(1-methylcyclobutoxy)butanoyl]amino]pyridine-2-carboxamide], the pIC50 against human plasma kallikrein is 7.08; against human factor XIa, 7.77.
The like results for `CNC(=O)c1ccc(NC(=O)C(CC2COCCO2)n2cc(OC)c(-c3cc(Cl)ccc3OCC(F)F)cc2=O)cn1` (centres unmarked) [Example 31, 5-{[2-{4-[5-Chloro-2-(2,2-difluoroethoxy)phenyl]-5-methoxy-2-oxopyridin-1(2H)-yl}-3-(1,4-dioxan-2-yl)propanoyl]amino}-N-methylpyridine-2-carboxamide] were, in that order, 6.92 and 8.15.
As to `COc1cn([C@@H](C[C@@H]2CCCCO2)C(=O)Nc2ccc(C(=O)O)cc2)c(=O)cc1-c1cc(Cl)ccc1OCC(F)(F)F` (single isomer, unassigned) [Example 78], the figures for the pIC50 against human plasma kallikrein and on human factor XIa were 7.72 and 9.39, respectively.
